From the NIST ThermoML archive (doi:10.1016/j.jct.2018.11.010)

Assay: xn = mol fraction of the nth substance listed
Details: Liquid, Vibrating tube method

CCCCCCCO [heptan-1-ol] + CCCCOCCCC
mass density [kg/m3]
Details	x2 = 0	x2 = 0.1488	x2 = 0.3201	x2 = 0.4944	x2 = 0.7014	x2 = 0.8534
333.15 K, 140000 kPa	–	857.7	850.3	843.3	834.8	829
353.15 K, 100 kPa	778.1	768	756.6	745.6	732.4	723.4
353.15 K, 1000 kPa	778.8	768.8	757.4	746.6	733.4	724.5
353.15 K, 5000 kPa	782.3	772.5	761.4	750.8	738	729.4
353.15 K, 10000 kPa	786.3	776.8	766	755.8	743.3	735
353.15 K, 15000 kPa	790.2	781	770.4	760.4	748.4	740.3
353.15 K, 20000 kPa	793.9	784.8	774.5	764.8	753.1	745.2
353.15 K, 25000 kPa	797.3	788.5	778.4	768.9	757.4	749.8
353.15 K, 30000 kPa	800.7	792.1	782.3	772.9	761.7	754.1
353.15 K, 35000 kPa	804	795.5	785.8	776.7	765.6	758.3
353.15 K, 40000 kPa	807.1	798.6	789.2	780.1	769.4	762.1
353.15 K, 45000 kPa	810	801.8	792.5	783.7	773	765.9
353.15 K, 50000 kPa	813	804.9	795.8	787.1	776.7	769.6
353.15 K, 55000 kPa	815.8	807.8	798.8	790.2	779.9	773.1
353.15 K, 60000 kPa	818.6	810.7	801.8	793.3	783.2	776.5
353.15 K, 65000 kPa	821.2	813.5	804.7	796.4	786.3	779.7
353.15 K, 70000 kPa	823.8	816.2	807.5	799.3	789.5	782.9
353.15 K, 80000 kPa	828.7	821.2	812.8	804.8	795.2	788.8
353.15 K, 90000 kPa	833.5	826.2	817.9	810.1	800.7	794.4
353.15 K, 100000 kPa	837.9	830.8	822.7	815.1	805.9	799.8
353.15 K, 110000 kPa	842.3	835.3	827.4	819.9	810.9	804.9
353.15 K, 120000 kPa	846.4	839.5	831.8	824.4	815.6	809.7
353.15 K, 130000 kPa	850.3	843.7	836	828.7	820.1	814.2
353.15 K, 140000 kPa	854.3	847.6	840.1	833	824.5	818.7
373.15 K, 100 kPa	761.9	–	–	–	–	–
373.15 K, 1000 kPa	762.8	752.3	740.4	729.1	715.4	706.3
373.15 K, 5000 kPa	766.6	756.5	744.8	733.9	720.7	711.9
373.15 K, 10000 kPa	771.1	761.3	750	739.6	726.7	718.3
373.15 K, 15000 kPa	775.5	765.9	754.9	744.8	732.4	724.2
373.15 K, 20000 kPa	779.5	770.2	759.5	749.6	737.6	729.7
373.15 K, 25000 kPa	783.4	774.3	763.9	754.3	742.5	734.8
373.15 K, 30000 kPa	787.1	778.1	768	758.6	747.2	739.6
373.15 K, 35000 kPa	790.6	781.9	772	762.7	751.6	744.1
373.15 K, 40000 kPa	794	785.4	775.7	766.7	755.7	748.5
373.15 K, 45000 kPa	797.2	788.9	779.3	770.5	759.7	752.7
373.15 K, 50000 kPa	800.3	792.1	782.7	774	763.4	756.5
373.15 K, 55000 kPa	803.4	795.2	786	777.5	767.1	760.3
373.15 K, 60000 kPa	806.3	798.3	789.2	780.8	770.6	763.9
373.15 K, 65000 kPa	809.2	801.3	792.3	784	774	767.4
373.15 K, 70000 kPa	811.9	804.1	795.3	787.1	777.2	770.6
373.15 K, 80000 kPa	817.2	809.7	801.1	793.1	783.5	777.1
373.15 K, 90000 kPa	822.3	814.9	806.5	798.7	789.3	783.1
373.15 K, 100000 kPa	827	819.8	811.5	803.9	794.8	788.7
373.15 K, 110000 kPa	831.6	824.5	816.5	809.1	800	794
373.15 K, 120000 kPa	835.9	829	821.1	813.8	805	799.1
373.15 K, 130000 kPa	840.2	833.4	825.6	818.4	809.8	803.9
373.15 K, 140000 kPa	844.1	837.4	829.8	822.8	814.3	808.6
393.15 K, 100 kPa	744.9	–	–	–	–	–
393.15 K, 1000 kPa	745.8	734.9	722.5	710.7	696.6	687.4
393.15 K, 5000 kPa	750.2	739.7	727.6	716.3	702.7	693.9
393.15 K, 10000 kPa	755.3	745.1	733.5	722.7	709.7	701.2
393.15 K, 15000 kPa	760.1	750.3	739	728.6	716	708
393.15 K, 20000 kPa	764.6	755.1	744.2	734	721.9	714
393.15 K, 25000 kPa	768.8	759.6	749	739.1	727.4	719.7
393.15 K, 30000 kPa	772.9	763.8	753.5	743.9	732.4	725
393.15 K, 35000 kPa	776.8	767.9	757.8	748.5	737.3	730
393.15 K, 40000 kPa	780.4	771.8	761.9	752.7	741.8	734.8
393.15 K, 45000 kPa	783.9	775.4	765.8	756.8	746	739.1
393.15 K, 50000 kPa	787.3	779	769.4	760.7	750.1	743.4
393.15 K, 55000 kPa	790.7	782.5	773.2	764.5	754.2	747.5
393.15 K, 60000 kPa	793.8	785.7	776.5	768	757.9	751.3
393.15 K, 65000 kPa	796.8	788.9	779.8	771.4	761.5	755
393.15 K, 70000 kPa	799.8	792	783.1	774.9	765	758.7
393.15 K, 80000 kPa	805.5	797.8	789.2	781.2	771.6	765.4
393.15 K, 90000 kPa	810.9	803.5	795	787.2	777.9	771.8
393.15 K, 100000 kPa	815.9	808.6	800.4	792.8	783.6	777.7
393.15 K, 110000 kPa	820.8	813.7	805.6	798.2	789.3	783.5
393.15 K, 120000 kPa	825.3	818.3	810.4	803.1	794.3	788.7
393.15 K, 130000 kPa	829.8	822.9	815.1	808	799.4	793.8
393.15 K, 140000 kPa	834	827.3	819.7	812.7	804.2	798.7
